The source of these data is patent US20240254089A1, “MODULATORS OF MAS-RELATED G-PROTEIN RECEPTOR X4 AND RELATED PRODUCTS AND METHODS” (ESCIENT PHARMACEUTICALS, INC., priority 2020, published 2024).

Broadly, the IC50 is the concentration needed to halve the response being measured. Low readings indicate greater potency in that assay, high ones weaker potency in that assay.

The target of this test is T1, human MRGPR X4 (Homo sapiens, UniProt Q96LA9).
T1 construct: expressed in transfected cells
Kind of test: MRGPR X4 antagonist activity, IP-One Gq HTRF assay in stably transfected HEK cells. Format: cell-based. How it is done: HEK cells stably transfected to express human MIRGPR X4 were maintained in an incubator at 37° C. with 5% CO2 and grown in DMEM media with 10% fetal bovine serum (FBS) and […] each of sodium pyruvate, Glutamax, penicillin/streptomycin, and Geneticin. HEK cells stably transfected to express mouse MRGPR A1 were maintained in the same incubator and grown in DMEM media with 10% FBS, 1% each of sodium pyruvate, Glutamax, penicillin/streptomycin, Geneticin, and 2.2 mg/mL Hygromycin.
Cells were plated in a 384-well assay plate at 20,000 cells per well in 12 μL of Opti-MEM and kept in an incubator overnight. On the day of the assay, compounds solubilized at 10 mM in DMSO were added as a 10-point curve (10 uM final top concentration with 1:3 serial dilutions) using a Tecan D300E digital dispenser. Agonists were diluted in assay buffer (final concentrations of 5.7 mM Tris-HCl, 43 mM NaCl, 50 mM LiCl, pH=8) and 2 μL of the appropriate agonist are added to each well. Final concentrations of agonists were 10 μM bilirubin, 20 μM deoxycholic acid, or 100 μM conjugated bilirubin (obtained from Lee Biosolutions, catalog #910-12). Final concentrations of DMSO were kept consistent across the plate. Plates were incubated in the dark for 1 h at 37° C. and then for 30 minutes at room temperature. IP-1 standards and HTRF detection reagents were added according to the IP-One—Gq Kit purchased from Cisbio (part number 62IPAPEJ) and incubated in the dark for 1 h at room temperature. The plate was read on a Molecular Devices SpectraMax iD5 plate reader. The HTRF ratio was calculated from the raw data and graphed using GraphPad Prism to calculate an IC50 value for each compound.
A general note: Time-resolved FRET reads energy transfer from a long-lived donor to a nearby acceptor.

T1 sequence (Q96LA9 whole entry): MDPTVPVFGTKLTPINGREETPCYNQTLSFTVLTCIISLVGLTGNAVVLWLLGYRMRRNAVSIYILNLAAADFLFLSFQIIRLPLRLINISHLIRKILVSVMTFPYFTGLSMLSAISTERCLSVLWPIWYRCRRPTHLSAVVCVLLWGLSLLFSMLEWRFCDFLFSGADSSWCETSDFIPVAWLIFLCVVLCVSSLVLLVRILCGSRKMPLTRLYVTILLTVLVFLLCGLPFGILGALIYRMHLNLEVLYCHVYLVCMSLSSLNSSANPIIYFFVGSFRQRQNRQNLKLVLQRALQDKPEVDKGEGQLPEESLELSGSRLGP

In the case of `Cc1cccn2c(CCNC(=O)c3nn(Cc4ccc(Cl)cc4)c4ccc(F)cc34)nnc12` [Compound 1], the concentration for half-maximal inhibition (IC50) was less than 100 nM.

As for `O=C(NCCc1nnc2ccccn12)c1nn(Cc2ccc(Cl)cc2)c2ccc(F)cc12` [Compound 2], the 50% inhibitory concentration (IC50) is less than 100 nM. In turn, `O=C(NCCc1nnc2ccccn12)c1nn(Cc2ccc(Cl)cc2)c2cc(F)ccc12` [Compound 3] showed an IC50 of less than 100 nM. For `Cc1cccn2c(CCNC(=O)c3nn(Cc4ccc(Cl)cc4)c4ccccc34)nnc12` [Compound 4], the IC50 was less than 100 nM. To `O=C(NCCc1nnc2n1CCCCC2)c1nn(Cc2ccc(C(F)(F)F)cc2)c2ccccc12` [Compound 5] belongs less than 100 nM; to `O=C(NCCc1nnc2n1CCCCC2)c1nn(Cc2ccc(Cl)cc2)c2ccccc12` [Compound 6], less than 100 nM. In turn, `Cc1cc(Cn2nc(C(=O)NCCc3nnc4n3CCCCC4)c3ccccc32)ccc1Cl` [Compound 7] had a half-maximal inhibitory concentration (IC50) of less than 100 nM.

With `O=C(NCCc1nnc2n1CCCCC2)c1nn(Cc2ccc(Cl)cc2)c2ccc(Cl)cc12` [Compound 8], the IC50 is less than 100 nM. Regarding `O=C(NCCc1cccc(O)c1)c1nn(Cc2ccc(Cl)cc2)c2ccccc12` [Compound 9], the IC50 is less than 100 nM. The same measure for `O=C(NCCc1nnc2ccccn12)c1nn(Cc2ccc(Cl)cc2)c2ccccc12` [Compound 10]: less than 100 nM; for `Cc1cc(Cl)ccc1Cn1nc(C(=O)NCCc2nnc3n2CCCCC3)c2ccccc21` [Compound 11]: less than 100 nM.

In the case of `O=C(NCCc1nnc2ccccn12)c1nn(Cc2ccc(Cl)cc2)c2ccc(Cl)cc12` [Compound 12], the IC50 was less than 100 nM. Regarding `Cc1ccc(Cn2nc(C(=O)NCCc3nnc4n3CCCCC4)c3ccccc32)cc1` [Compound 13], the 50% inhibitory concentration (IC50) is less than 100 nM.

For `O=C(NCCc1nnc2ccccn12)c1nn(Cc2ccc(C(F)(F)F)cc2)c2ccccc12` [Compound 14], the IC50 was less than 100 nM. `O=C(NCCc1nnc2ccccn12)c1nn(Cc2ccc(Cl)cc2)c2cccc(F)c12` [Compound 15]: the concentration for half-maximal inhibition (IC50) is less than 100 nM. To `O=C(NCCc1cccnc1)c1nn(Cc2ccc(Cl)cc2Cl)c2ccccc12` [Compound 16] belongs less than 100 nM; to `O=C(NCCc1cccnc1)c1nn(Cc2ccc(Cl)c(F)c2)c2ccccc12` [Compound 17], less than 100 nM. The same measure for `O=C(NCCc1cccnc1)c1nn(Cc2ccc(Cl)cc2F)c2ccccc12` [Compound 18]: less than 100 nM. The same measure for `O=C(NCCc1cccnc1)c1nn(Cc2ccc(Cl)cc2)c2ccccc12` [Compound 19]: less than 100 nM; for `O=C(NCCc1ccccc1O)c1nn(Cc2ccc(Cl)cc2)c2ccccc12` [Compound 20]: less than 100 nM. For `Cc1ccc(CCNC(=O)c2nn(Cc3ccc(Cl)cc3)c3ccccc23)cn1` [Compound 21], the half-maximal inhibitory concentration (IC50) was less than 100 nM. `O=C(NCCc1cccnc1)c1nn(Cc2ccc(Cl)c(Cl)c2)c2ccccc12` [Compound 22] displayed an IC50 of less than 100 nM. The same measure for `O=C(NCCc1ccccn1)c1nn(Cc2ccc(Cl)cc2)c2ccccc12` [Compound 23]: less than 100 nM; for `O=C(NCCc1nnc2n1CCCCC2)c1nn(Cc2ccc(OC(F)F)cc2)c2ccccc12` [Compound 24]: less than 100 nM; for `O=C(NCCc1nnc2n1CCCC2)c1nn(Cc2ccc(Cl)cc2)c2ccccc12` [Compound 25]: less than 100 nM.

Take `Cc1ccc(Cn2nc(C(=O)NCCc3nnc4n3CCCCC4)c3c(C#N)cccc32)cc1` [Compound 26]: the IC50 was less than 100 nM. `Cc1ccc(Cn2nc(C(=O)NCCc3cccnc3)c3cc(Cl)ccc32)cc1` [Compound 27] came in with a half-inhibitory concentration (IC50) of less than 100 nM. To `Cc1ccc(Cn2nc(C(=O)NCCc3nc4c(s3)CCCC4)c3ccccc32)cc1` [Compound 28] belongs 100 to 500 nM; to `O=C(NCCc1nc2c(s1)CCCC2)c1nn(Cc2ccc(Cl)cc2)c2ccccc12` [Compound 29], 100 to 500 nM. The same measure for `Cc1ccc(Cn2nc(C(=O)NCCc3nnc4n3CCCCC4)c3c(F)cccc32)cc1` [Compound 30]: 100 to 500 nM; for `O=C(NCCc1ccncc1)c1nn(Cc2ccc(Cl)cc2)c2ccccc12` [Compound 31]: 100 to 500 nM.

`Cc1cc(Cn2nc(C(=O)NCCc3cccnc3)c3ccccc32)ccc1Cl` [Compound 32] gave an IC50 of 100 to 500 nM. The same measure for `O=C(NCCc1cn2c(n1)SCC2)c1nn(Cc2ccc(Cl)cc2)c2ccccc12` [Compound 33]: 100 to 500 nM; for `Cc1nc(CCNC(=O)c2nn(Cc3ccc(Cl)cc3)c3ccccc23)sc1C` [Compound 34]: 100 to 500 nM; for `CC(C)c1ccc(Cn2nc(C(=O)NCCc3nnc4n3CCCCC4)c3ccccc32)cc1` [Compound 35]: 100 to 500 nM.

Compound `Cc1ccc(Cn2nc(C(=O)NCCc3nc4c(s3)CCC4)c3ccccc32)cc1` [Compound 36] gave a concentration for half-maximal inhibition (IC50) of 100 to 500 nM. `Cc1cc(Cl)ccc1Cn1nc(C(=O)NCCc2cccnc2)c2ccccc21` [Compound 37] returned a concentration for half-maximal inhibition (IC50) of 100 to 500 nM. The same measure for `Cc1ccc(Cn2nc(C(=O)NCCc3nc(C)cs3)c3ccccc32)cc1` [Compound 38]: 100 to 500 nM; for `Cc1ncccc1CCNC(=O)c1nn(Cc2ccc(C(F)(F)F)cc2)c2ccccc12` [Compound 39]: 100 to 500 nM; for `O=C(NCCc1ccc(O)cc1)c1nn(Cc2ccc(Cl)cc2)c2ccccc12` [Compound 40]: 100 to 500 nM.

Regarding `Cc1ccc(Cn2nc(C(=O)NCCc3cn4c(n3)SCC4)c3ccccc32)cc1` [Compound 41], the IC50 is 100 to 500 nM.

`O=C(NCCc1cccnc1)c1nn(Cc2ccc(OC(F)F)cc2)c2ccccc12` [Compound 42]: the 50% inhibitory concentration (IC50) was in the range of 100 to 500 nM. On to `COc1cc(Cn2nc(C(=O)NCCc3cccnc3)c3ccccc32)ccc1Cl` [Compound 43, 1-(4-chloro-3-methoxybenzyl)-N-(2-(pyridin-3-yl)ethyl)-1H-indazole-3-carboxamide], for which the IC50 fell in the range of 100 to 500 nM. To `Cc1ncccc1CCNC(=O)c1nn(Cc2ccc(Cl)cc2)c2ccccc12` [Compound 44] belongs 100 to 500 nM; to `O=C(NCCc1noc2ccccc12)c1nn(Cc2ccc(Cl)cc2)c2ccccc12` [Compound 45], 100 to 500 nM.

On to `O=C(NCCc1nc2ccccc2s1)c1nn(Cc2ccc(Cl)cc2)c2ccccc12` [Compound 46], for which the IC50 fell in the range of 100 to 500 nM. The same measure for `N#Cc1ccccc1Cn1nc(C(=O)NCCc2cccnc2)c2ccccc21` [Compound 47]: 100 to 500 nM; for `Cn1ccc(CCNC(=O)c2nn(Cc3ccc(Cl)cc3)c3ccccc23)n1` [Compound 48]: 100 to 500 nM; for `Cc1ccc(CCNC(=O)c2nn(Cc3ccc(C(F)(F)F)cc3)c3ccccc23)cn1` [Compound 49]: 100 to 500 nM. For the compound `CC(C)(C)c1ccc(Cn2nc(C(=O)NCCc3nnc4n3CCCCC4)c3ccccc32)cc1` [Compound 50], the 50% inhibitory concentration (IC50) lay within 100 to 500 nM. The same measure for `O=C(NCCc1nnc2ccccn12)c1nn(Cc2ccc(F)cc2)c2ccccc12` [Compound 51]: 100 to 500 nM. The same measure for `Cc1ccc(Cn2nc(C(=O)NCCc3cccnc3)c3ccccc32)cc1` [Compound 52]: 100 to 500 nM; for `Cc1ccc(Cn2nc(C(=O)NCCc3nc(C)c(C)s3)c3ccccc32)cc1` [Compound 53]: 100 to 500 nM; for `O=C(NCCc1nc2c(s1)CCCC2)c1nn(Cc2ccc(Cl)c(F)c2)c2ccccc12` [Compound 54]: 100 to 500 nM. `Cc1cccc(CCNC(=O)c2nn(Cc3ccc(Cl)cc3)c3ccccc23)n1` [Compound 55] came in with an IC50 of 100 to 500 nM.
